Data: ChEMBL document CHEMBL1201862, “PubChem BioAssay data set” (2004)
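In this assay, cells in 96-well plates receive the compound at five concentrations for 48 hours. Endpoints are linearly interpolated between the surrounding concentrations. GI50 is the concentration that inhibits growth by half.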 Calls of active or inactive are those of the source. Cut-off read from the data, not from the text of the source: active = GI50 up to about 1.1 µM and inactive = higher.

Experiments:
Experiment in all cases: inhibition of tumour cell growth, NCI panel, 48 h
SK-MEL-28 = system: SK-MEL-28
SW-620 = system: SW-620
OVCAR-4 = system: OVCAR-4
MCF7 = system: MCF7
OVCAR-8 = system: OVCAR-8
A549 = system: A549
COLO 205 = system: COLO 205
DU-145 = system: DU-145
BT-549 = system: BT-549
RXF 393 = system: RXF 393
Malme-3M = system: Malme-3M
MDA-MB-435 = system: MDA-MB-435
U-251 = system: U-251
MDA-N = system: MDA-N
HL-60 = system: HL-60
A498 = system: A498
MOLT-4 = system: MOLT-4
MDA-MB-231 = system: MDA-MB-231
SK-MEL-2 = system: SK-MEL-2
NCI-H460 = system: NCI-H460
SNB-75 = system: SNB-75
HCC 2998 = system: HCC 2998
EKVX = system: EKVX
NCI-H522 = system: NCI-H522
SK-OV-3 = system: SK-OV-3
SF-539 = system: SF-539
SR = system: SR
NCI/ADR-RES = system: NCI/ADR-RES
NCI-H23 = system: NCI-H23
M14 = system: M14
SNB-19 = system: SNB-19
Hs-578T = system: Hs-578T
NCI-H226 = system: NCI-H226
KM12 = system: KM12
786-0 = system: 786-0
SN12C = system: SN12C
HT-29 = system: HT-29
LOX IMVI = system: LOX IMVI
SK-MEL-5 = system: SK-MEL-5
SF-295 = system: SF-295
PC-3 = system: PC-3
HOP-92 = system: HOP-92
UACC-257 = system: UACC-257
T47D = system: T47D
UO-31 = system: UO-31
CAKI-1 = system: CAKI-1
UACC-62 = system: UACC-62
HCT-116 = system: HCT-116
OVCAR-5 = system: OVCAR-5
ACHN = system: ACHN
HOP-62 = system: HOP-62
OVCAR-3 = system: OVCAR-3
IGROV-1 = system: IGROV-1
TK-10 = system: TK-10
SF-268 = system: SF-268
HCT-15 = system: HCT-15
K562 = system: K562
RPMI-8226 = system: RPMI-8226
CCRF-CEM = system: CCRF-CEM

## O=C(O)[C@H](c1ccccc1)[C@@H](C(=O)O)c1ccccc1
SK-MEL-28
  GI50: > 100 µM (inactive)
SW-620
  GI50: > 100 µM (inactive)
OVCAR-4
  GI50: > 100 µM (inactive)
MCF7
  GI50: > 100 µM (inactive)
OVCAR-8
  GI50: > 100 µM (inactive)
A549
  GI50: > 100 µM (inactive)
COLO 205
  GI50: > 100 µM (inactive)
DU-145
  GI50: > 100 µM (inactive)
BT-549
  GI50: > 100 µM (inactive)
RXF 393
  GI50: > 100 µM (inactive)
Malme-3M
  GI50: > 100 µM (inactive)
MDA-MB-435
  GI50: > 100 µM (inactive)
U-251
  GI50: > 100 µM (inactive)
MDA-N
  GI50: > 100 µM (inactive)
HL-60
  GI50: 0.228 µM (active)
A498
  GI50: > 100 µM (inactive)
MOLT-4
  GI50: > 100 µM (inactive)
MDA-MB-231
  GI50: > 100 µM (inactive)
SK-MEL-2
  GI50: > 100 µM (inactive)
NCI-H460
  GI50: > 100 µM (inactive)
SNB-75
  GI50: > 100 µM (inactive)
HCC 2998
  GI50: > 100 µM (inactive)
EKVX
  GI50: > 100 µM (inactive)
NCI-H522
  GI50: > 100 µM (inactive)
SK-OV-3
  GI50: > 100 µM (inactive)
SF-539
  GI50: > 100 µM (inactive)
SR
  GI50: > 100 µM (inactive)
NCI/ADR-RES
  GI50: > 100 µM (inactive)
NCI-H23
  GI50: > 100 µM (inactive)
M14
  GI50: > 100 µM (inactive)
SNB-19
  GI50: > 100 µM (inactive)
Hs-578T
  GI50: > 100 µM (inactive)
NCI-H226
  GI50: > 100 µM (inactive)
KM12
  GI50: > 100 µM (inactive)
786-0
  GI50: > 100 µM (inactive)
SN12C
  GI50: > 100 µM (inactive)
HT-29
  GI50: > 100 µM (inactive)
LOX IMVI
  GI50: > 100 µM (inactive)
SK-MEL-5
  GI50: > 100 µM (inactive)
SF-295
  GI50: > 100 µM (inactive)
PC-3
  GI50: > 100 µM (inactive)
HOP-92
  GI50: > 100 µM (inactive)
UACC-257
  GI50: > 100 µM (inactive)
T47D
  GI50: > 100 µM (inactive)
UO-31
  GI50: > 100 µM (inactive)
CAKI-1
  GI50: > 100 µM (inactive)
UACC-62
  GI50: > 100 µM (inactive)
HCT-116
  GI50: > 100 µM (inactive)
OVCAR-5
  GI50: > 100 µM (inactive)
ACHN
  GI50: > 100 µM (inactive)
HOP-62
  GI50: > 100 µM (inactive)
OVCAR-3
  GI50: > 100 µM (inactive)
IGROV-1
  GI50: > 100 µM (inactive)
TK-10
  GI50: > 100 µM (inactive)
SF-268
  GI50: > 100 µM (inactive)
HCT-15
  GI50: > 100 µM
K562
  GI50: > 100 µM (inactive)
RPMI-8226
  GI50: > 100 µM (inactive)

## Clc1cccc(/C=N/C23CC4CC(CC(C4)C2)C3)c1Cl
SK-MEL-28
  GI50: > 10 µM (inactive)
SW-620
  GI50: > 10 µM (inactive)
OVCAR-4
  GI50: > 10 µM (inactive)
MCF7
  GI50: > 10 µM (inactive)
OVCAR-8
  GI50: > 10 µM (inactive)
A549
  GI50: > 10 µM (inactive)
COLO 205
  GI50: > 10 µM (inactive)
DU-145
  GI50: > 10 µM (inactive)
BT-549
  GI50: > 10 µM (inactive)
RXF 393
  GI50: > 10 µM (inactive)
Malme-3M
  GI50: > 10 µM (inactive)
MDA-MB-435
  GI50: > 10 µM (inactive)
U-251
  GI50: > 10 µM (inactive)
MDA-N
  GI50: > 10 µM (inactive)
HL-60
  GI50: 6.28 µM (inactive)
A498
  GI50: > 10 µM (inactive)
MDA-MB-231
  GI50: > 10 µM (inactive)
SK-MEL-2
  GI50: > 10 µM (inactive)
NCI-H460
  GI50: > 10 µM (inactive)
SNB-75
  GI50: 5.36 µM (inactive)
HCC 2998
  GI50: > 10 µM (inactive)
EKVX
  GI50: > 10 µM (inactive)
NCI-H522
  GI50: > 10 µM (inactive)
SK-OV-3
  GI50: > 10 µM (inactive)
SF-539
  GI50: > 10 µM (inactive)
SR
  GI50: 0.637 µM (active)
NCI/ADR-RES
  GI50: > 10 µM (inactive)
NCI-H23
  GI50: > 10 µM (inactive)
M14
  GI50: > 10 µM (inactive)
SNB-19
  GI50: > 10 µM (inactive)
Hs-578T
  GI50: > 10 µM (inactive)
NCI-H226
  GI50: > 10 µM (inactive)
KM12
  GI50: > 10 µM (inactive)
786-0
  GI50: > 10 µM (inactive)
SN12C
  GI50: > 10 µM (inactive)
HT-29
  GI50: > 10 µM (inactive)
LOX IMVI
  GI50: > 10 µM (inactive)
SK-MEL-5
  GI50: > 10 µM (inactive)
SF-295
  GI50: > 10 µM (inactive)
PC-3
  GI50: > 10 µM (inactive)
HOP-92
  GI50: > 10 µM (inactive)
UACC-257
  GI50: > 10 µM (inactive)
T47D
  GI50: > 10 µM (inactive)
CAKI-1
  GI50: > 10 µM (inactive)
UACC-62
  GI50: > 10 µM (inactive)
HCT-116
  GI50: 6.35 µM (inactive)
OVCAR-5
  GI50: > 10 µM (inactive)
CCRF-CEM
  GI50: > 10 µM (inactive)
ACHN
  GI50: > 10 µM (inactive)
HOP-62
  GI50: > 10 µM (inactive)
OVCAR-3
  GI50: > 10 µM (inactive)
IGROV-1
  GI50: > 10 µM (inactive)
TK-10
  GI50: > 10 µM (inactive)
SF-268
  GI50: > 10 µM (inactive)
HCT-15
  GI50: > 10 µM
K562
  GI50: > 10 µM (inactive)
RPMI-8226
  GI50: > 10 µM (inactive)
